Test results reported in patent US9833497B2, “Human originated EGF domain proteins and use of the same” (CHENGDU SOURCEBIO LIMITED-LIABILITY COMPANY, priority 2013, dated 2017).

Tests used:
Assay type in all cases: cell-based
[1] = test system: E. coli DH5α; test: Antibacterial activity: MIC and growth curve against E. coli DH5α in 96-well plate; conditions: minimal inhibitory concentration against E. coli DH5α; 96-well plate, 5×10^5 CFU/mL, 37° C., judged after 8 h
Protocol: 1. E. coli DH5α was exemplified. E. coli DH5α was streaked and cultured on LB solid medium. Then, a typical clone was picked and inoculated into common LB liquid medium, cultured at 37° C. with shaking at 185 rpm until the logarithmic growth phase was reached (OD600 of about 0.5). The bacterial culture was centrifuged at 4000×g for 3 min, the supernatant was discarded, and the thalli were resuspended with fresh LB medium.
2. The above-mentioned bacterial suspension was diluted and inoculated into a 96-well plate with the total volume of 100 μL per well and a bacterial count of 5×10^5 CFU/mL.
3. The recombinant protein hF VII-EGF1 was added to the above-mentioned wells with the final protein concentration in the well of the highest protein concentration being 50 μg/mL. Basing on this final concentration, a two-fold serial dilution was performed till a protein concentration gradient consisting of 50, 25, and 12.5 μg/mL was set up. Three parallel wells were set up for each concentration in the gradient.
4. The above-mentioned 96-well plate was placed and cultured at 37° C. in shaking incubator shaking at 175 rpm. Samples were taken every 30 min, the absorbance values were determined at 600 nm wavelength under a ultra violet spectrophotometer, and an inhibition curve was plotted. […] The minimal inhibitory concentration MIC is defined as the lowest concentration of the recombinant protein at which there is no growth of the bacteria.
According to the experimental procedures in Example 14, the minimal inhibitory concentrations (MIC, μg/mL) of the other human-originated EGF domain proteins (PRT2 to PRT1498 in Table 1) for E. coli DH5α were determined.

[2] = test system: E. coli BL21; test: MIC against Gram-negative bacteria: E. coli BL21; conditions: E. coli BL21; for MIC: 10 h cultivation at 37° C.; for MIC (μg/mL) E. coli BL21: 96-well plate, 37° C., 10 h
Protocol: (§1) 1. Gram-negative bacteria, such as E. coli BL21, Pseudomonas aeruginosa, Klebsiella pneumonia, Enterobacter cloacae, Aeromonas hydrophila, Citrobacter diversus, Moraxella catarrhalis, Proteus mirabilis, Proteus vulgaris, Serratia marcescens, etc were streaked on solid LB medium and cultured respectively. Then, typical clones were picked, inoculated into common liquid LB medium respectively, and cultured at 37° C. with shaking at 185 rpm until the McFarland specific turbidity was 0.5. The bacterial culture of each of Gram-negative bacteria was centrifuged at 4000×g for 3 min, the supernatant was discarded, and the thalli were resuspended with fresh LB medium.
(§2) 2. The above-mentioned bacterial suspensions were diluted and inoculated into 96-well plates with the final concentration of the bacterial suspension being 5×10^5 CFU/mL per well.
(§3) 3. Each of the purified human-originated EGF domain proteins (PRT1 to PRT1498 in Table 1) was added to each of the above wells and subjected to two-fold serial dilution in concentration. Three parallel wells were set up for each concentration in the gradient.
(§4) 4. The above-mentioned 96-well plates were placed and cultured at 37° C. in shaking incubator shaking at 175 rpm. […] The minimal inhibitory concentration MIC is defined as the lowest concentration of the recombinant protein at which there is no growth of the bacteria.

[3] = test system: Pseudomonas aeruginosa; test: MIC against Gram-negative bacteria: Pseudomonas aeruginosa; conditions: for MIC: P. aeruginosa, 10 h cultivation at 37° C.; for MIC (μg/mL) P. aeruginosa: Pseudomonas aeruginosa, 96-well plate, 37° C., 10 h
Protocol: as §1, §2, §3, §4

[4] = test system: Klebsiella pneumonia; test: MIC against Gram-negative bacteria: Klebsiella pneumonia; conditions: for MIC: K. pneumonia, 10 h cultivation at 37° C.; for MIC (μg/mL) K. pneumonia: Klebsiella pneumonia, 96-well plate, 37° C., 10 h
Protocol: as §1, §2, §3, §4

[5] = test system: Enterobacter cloacae; test: MIC against Gram-negative bacteria: Enterobacter cloacae; conditions: for MIC: E. cloacae, 10 h cultivation at 37° C.; for MIC (μg/mL) E. cloacae: Enterobacter cloacae, 96-well plate, 37° C., 10 h
Protocol: as §1, §2, §3, §4

[6] = test system: Aeromonas hydrophila; test: MIC against Gram-negative bacteria: Aeromonas hydrophila; conditions: for MIC: A. hydrophila, 10 h cultivation at 37° C.; for MIC (μg/mL) A. hydrophila: Aeromonas hydrophila, 96-well plate, 37° C., 10 h
Protocol: as §1, §2, §3, §4

[7] = test system: Citrobacter diversus; test: MIC against Gram-negative bacteria: Citrobacter diversus; conditions: for MIC: C. diversus, 10 h cultivation at 37° C.; for MIC (μg/mL) C. diversus: Citrobacter diversus, 96-well plate, 37° C., 10 h
Protocol: as §1, §2, §3, §4

[8] = test system: Moraxella catarrhalis; test: MIC against Gram-negative bacteria: Moraxella catarrhalis; conditions: for MIC: M. catarrhalis, 10 h cultivation at 37° C.; for MIC (μg/mL) M. catarrhalis: Moraxella catarrhalis, 96-well plate, 37° C., 10 h
Protocol: as §1, §2, §3, §4

[9] = test system: Proteus mirabilis; test: MIC against Gram-negative bacteria: Proteus mirabilis; conditions: for MIC: P. mirabilis, 10 h cultivation at 37° C.; for MIC (μg/mL) P. mirabilis: Proteus mirabilis, 96-well plate, 37° C., 10 h
Protocol: as §1, §2, §3, §4

[10] = test system: Proteus vulgaris; test: MIC against Gram-negative bacteria: Proteus vulgaris; conditions: for MIC: P. vulgaris, 10 h cultivation at 37° C.; for MIC (μg/mL) P. vulgaris: Proteus vulgaris, 96-well plate, 37° C., 10 h
Protocol: as §1, §2, §3, §4

[11] = test system: Serratia marcescens; test: MIC against Gram-negative bacteria: Serratia marcescens; conditions: for MIC: S. marcescens, 10 h cultivation at 37° C.; for MIC (μg/mL) S. marcescens: Serratia marcescens, 96-well plate, 37° C., 10 h
Protocol: as §1, §2, §3, §4

| Substance | MIC [1] [µg/mL] | MIC (μg/mL) E. coli BL21 ([2]; 5×10^5 CFU/mL) [µg/mL] | MIC (μg/mL) P. aeruginosa ([3]; 5×10^5 CFU/mL) [µg/mL] | MIC (μg/mL) K. pneumonia ([4]; 5×10^5 CFU/mL) [µg/mL] | MIC (μg/mL) E. cloacae ([5]; 5×10^5 CFU/mL) [µg/mL] | MIC (μg/mL) A. hydrophila ([6]; 5×10^5 CFU/mL) [µg/mL] | MIC (μg/mL) C. diversus ([7]; 5×10^5 CFU/mL) [µg/mL] | MIC (μg/mL) M. catarrhalis ([8]; 5×10^5 CFU/mL) [µg/mL] | MIC (μg/mL) P. mirabilis ([9]; 5×10^5 CFU/mL) [µg/mL] | MIC (μg/mL) P. vulgaris ([10]; 5×10^5 CFU/mL) [µg/mL] | MIC (μg/mL) S. marcescens ([11]; 5×10^5 CFU/mL) [µg/mL] | also measured |
| --- | --- | --- | --- | --- | --- | --- | --- | --- | --- | --- | --- | --- |
| PRT1026 (NKETCEHNHRQCSRHAFCTDYATGFCCHCQSKFYGNGKHCL; listed as Homo sapiens) | 12.5 | – | – | – | – | – | – | – | – | – | – | MIC [2]: 25 µg/mL; MIC [3]: 50 µg/mL; MIC [4]: 25 µg/mL; MIC [5]: 12.5 µg/mL; MIC [6]: 50 µg/mL; MIC [7]: 12.5 µg/mL; MIC [8]: 50 µg/mL; MIC [9]: 12.5 µg/mL; MIC [10]: 25 µg/mL; MIC [11]: 50 µg/mL |
| PRT413 (DVNECITGSHSCRLGESCINTVGSFRCQRDSSCGTGYELTEDNSCK; listed as Homo sapiens) | 12.5 | – | – | – | – | – | – | – | – | – | – | MIC ([2]; 5×10^5 CFU/mL): 12.5 µg/mL; MIC ([3]; 5×10^5 CFU/mL): 12.5 µg/mL; MIC ([4]; 5×10^5 CFU/mL): 50 µg/mL; MIC ([5]; 5×10^5 CFU/mL): 12.5 µg/mL; MIC ([6]; 5×10^5 CFU/mL): 50 µg/mL; MIC ([7]; 5×10^5 CFU/mL): 12.5 µg/mL; MIC ([8]; 5×10^5 CFU/mL): 50 µg/mL; MIC ([9]; 5×10^5 CFU/mL): 12.5 µg/mL; MIC ([10]; 5×10^5 CFU/mL): 12.5 µg/mL; MIC ([11]; 5×10^5 CFU/mL): 12.5 µg/mL |
| PRT73 (TNGQCQCKENYYKLLAQDTCLPCDCFPHGSHSRTCD; listed as Homo sapiens) | 25 | 50 | 25 | 100 | 25 | 50 | 12.5 | 50 | 12.5 | 50 | 12.5 | – |
| PRT108 (VKDHCSKHSPCQKGGTCVNMPSGPHCLCPQHLTGNHCQ; listed as Homo sapiens) | 50 | 12.5 | 25 | 50 | 25 | 12.5 | 25 | 50 | 12.5 | 12.5 | 12.5 | – |
| PRT2 (DQLICVNENGGCEQYCSDHTGTKRSCRCHEGYSLLADGVSCT; listed as Homo sapiens) | 25 | 50 | 50 | 50 | 25 | 25 | 25 | 12.5 | 25 | 12.5 | 12.5 | – |
